ChEMBL document CHEMBL5523756, “Molecular Transformers: Adaptive Multitarget Ligands for Esterase-Induced Transition from Analgesics to Anesthetics” (J Med Chem, 2024)
Active and inactive are the calls of the source.

How the values were obtained:
[1] = target: T1, Sodium channel protein type 10 subunit alpha (Homo sapiens, UniProt Q9Y5Y9); experiment: Binding affinity to Nav1.8 (unknown origin) expressed in HEK293T cells assessed as retention time of compound at 1 mg/ml by cell membrane chromatography; assay type: cell membranes
T1 sequence (Q9Y5Y9 whole entry, looked up): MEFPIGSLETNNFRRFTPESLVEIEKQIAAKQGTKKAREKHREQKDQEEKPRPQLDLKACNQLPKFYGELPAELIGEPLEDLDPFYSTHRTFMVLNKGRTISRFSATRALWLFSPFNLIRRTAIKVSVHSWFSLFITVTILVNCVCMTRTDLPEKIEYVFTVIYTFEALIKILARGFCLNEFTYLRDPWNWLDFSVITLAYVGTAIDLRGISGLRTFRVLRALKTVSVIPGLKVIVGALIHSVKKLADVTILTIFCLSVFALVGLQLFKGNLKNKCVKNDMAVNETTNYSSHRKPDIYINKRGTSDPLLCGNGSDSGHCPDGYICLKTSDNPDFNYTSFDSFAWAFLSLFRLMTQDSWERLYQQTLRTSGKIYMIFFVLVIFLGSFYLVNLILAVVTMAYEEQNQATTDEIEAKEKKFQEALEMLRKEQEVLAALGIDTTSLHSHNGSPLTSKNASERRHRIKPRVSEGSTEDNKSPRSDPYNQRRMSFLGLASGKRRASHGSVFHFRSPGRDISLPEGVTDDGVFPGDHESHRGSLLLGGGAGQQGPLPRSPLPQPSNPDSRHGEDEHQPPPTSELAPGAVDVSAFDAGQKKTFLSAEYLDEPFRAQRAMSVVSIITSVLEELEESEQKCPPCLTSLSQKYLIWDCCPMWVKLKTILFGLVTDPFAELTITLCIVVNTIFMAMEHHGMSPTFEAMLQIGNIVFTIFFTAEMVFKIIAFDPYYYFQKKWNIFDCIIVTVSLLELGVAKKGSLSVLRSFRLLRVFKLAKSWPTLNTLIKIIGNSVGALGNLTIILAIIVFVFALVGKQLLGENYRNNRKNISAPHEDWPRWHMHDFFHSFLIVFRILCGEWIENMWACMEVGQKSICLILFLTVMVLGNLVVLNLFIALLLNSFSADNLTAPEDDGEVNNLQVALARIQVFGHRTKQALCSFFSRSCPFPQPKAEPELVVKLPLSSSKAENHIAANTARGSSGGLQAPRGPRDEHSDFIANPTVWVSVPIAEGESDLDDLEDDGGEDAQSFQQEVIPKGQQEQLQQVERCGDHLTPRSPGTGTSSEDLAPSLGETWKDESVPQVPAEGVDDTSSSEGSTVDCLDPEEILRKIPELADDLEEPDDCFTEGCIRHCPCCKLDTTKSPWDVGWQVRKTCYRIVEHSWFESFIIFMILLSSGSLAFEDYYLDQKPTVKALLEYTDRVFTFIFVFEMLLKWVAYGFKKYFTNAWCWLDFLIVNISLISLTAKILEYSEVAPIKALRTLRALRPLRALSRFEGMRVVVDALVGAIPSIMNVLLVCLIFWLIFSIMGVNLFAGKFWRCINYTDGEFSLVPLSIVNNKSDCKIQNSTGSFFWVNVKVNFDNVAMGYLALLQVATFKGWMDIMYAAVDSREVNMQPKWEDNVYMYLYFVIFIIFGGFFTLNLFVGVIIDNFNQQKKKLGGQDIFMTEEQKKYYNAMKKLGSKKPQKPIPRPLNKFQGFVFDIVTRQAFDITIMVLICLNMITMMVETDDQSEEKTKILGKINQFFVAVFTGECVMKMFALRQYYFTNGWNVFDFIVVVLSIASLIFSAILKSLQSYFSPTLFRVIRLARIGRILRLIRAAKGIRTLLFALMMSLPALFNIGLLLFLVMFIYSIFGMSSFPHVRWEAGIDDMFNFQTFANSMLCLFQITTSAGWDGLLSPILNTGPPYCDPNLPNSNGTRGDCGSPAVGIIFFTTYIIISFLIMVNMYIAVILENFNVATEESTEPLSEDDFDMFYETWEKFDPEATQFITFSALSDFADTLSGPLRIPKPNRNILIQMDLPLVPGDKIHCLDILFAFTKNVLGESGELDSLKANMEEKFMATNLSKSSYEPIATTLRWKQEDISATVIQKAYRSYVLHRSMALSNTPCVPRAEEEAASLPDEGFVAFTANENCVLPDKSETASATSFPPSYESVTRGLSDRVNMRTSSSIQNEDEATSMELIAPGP

[2] = target: T1, Sodium channel protein type 10 subunit alpha; experiment: Inhibition of Nav1.8 channel (unknown origin) at -120 mV conditioning pulse by voltage clamp electrophysiological recording
[3] = Stability of compound assessed as porcine liver esterase mediated propofol release by measuring half life at 1 mg/ml by HPLC analysis; assay type: ADME, Sus scrofa; conditions: pig, isolated protein
[4] = target: T1, Sodium channel protein type 10 subunit alpha; experiment: Binding affinity to Nav1.8 (unknown origin) expressed in HEK293T cells at 1 mg/ml by cell membrane chromatography; assay type: cell membranes
[5] = test system: Mus musculus; experiment: Analgesic effect in ICR mouse model of CFA-induced chronic inflammatory pain assessed as increase in paw withdrawal threshold at 0.07 mmol/kg, ip measured upto 90 mins by Von Frey test; assay type: functional, organism-based
[6] = Toxicity in ICR mouse assessed as survival rate at 1.5 times ED50 administered intravenously; conditions: in vivo, route iv
[7] = test system: Mus musculus; experiment: Anesthetic effect in iv dosed ICR mouse by up-and-down method; assay type: functional
[8] = target: GABA-A receptor; alpha-1/beta-2/gamma-2 (Homo sapiens) (UniProt P14867+P47870+P18507); experiment: Agonist activity at alpha1beta2gamma2 GABA-A receptor (unknown origin) at 10 uM at -70 mV holding potential by electrophysiological recording; assay type: protein-complex assay; conditions: filed as agonist

SMILES | Retention time [1] [min] | t1/2 [3] [min] | also measured
Cc1cc(F)ccc1Oc1cc(C(F)(F)F)ccc1C(=O)Nc1ccn(COP(=O)(O)O)c(=O)c1 | 2.6 |  | 
CC(C)c1cccc(C(C)C)c1OC(=O)CN1CCOCC1C (configuration not stated) | 0.8 |  | 
Cc1cc(COc2c(C(C)C)cccc2C(C)C)cc(C)c1CN |  |  | inhibition [2]: Active
CCN1CCN(CCOC(=O)Oc2c(C(C)C)cccc2C(C)C)CC1.Cl |  | 4.684 | 
CC(C)c1cccc(C(C)C)c1OC(=O)CN1CCSCC1.Cl |  | 22.97 | 
CC(C)c1cccc(C(C)C)c1C(=O)CSc1cccc[n+]1[O-] |  |  | inhibition [2]: Active
CC1CN(CCOC(=O)Oc2c(C(C)C)cccc2C(C)C)CC(C)O1 (configuration not stated) | 11.8 |  | 
COCCN(CCOC)CC(=O)Oc1c(C(C)C)cccc1C(C)C.Cl |  | 6.712 | 
Cc1nccn1Cc1ccc(C(=O)c2c(C(C)C)cccc2C(C)C)o1 |  |  | inhibition [2]: Active
CC1CN(CCCOC(=O)Oc2c(C(C)C)cccc2C(C)C)CC(C)O1 (configuration not stated) | 12.4 |  | 
CC(C)c1cccc(C(C)C)c1OC(=O)OCCN1CCSCC1.Cl |  | 4.03 | 
CC(C)c1cccc(C(C)C)c1C(=O)c1ccc(N(C)CCS(=O)(=O)O)cc1 |  |  | Activity [4]: Active; Activity [5]: Active; inhibition [2]: Active
CC(C)c1cccc(C(C)C)c1OC(=O)CN1CCS(=O)(=O)CC1.Cl |  | > 30 | 
COc1ccc(CNc2c(C(C)C)cccc2C(C)C)cc1OCC(N)=O |  |  | inhibition [2]: Active
CC(C)c1cccc(C(C)C)c1OC(=O)CN1CCN(C(C)C)CC1.Cl |  | > 120 | 
COCCN(CCOC)CCOC(=O)Oc1c(C(C)C)cccc1C(C)C.Cl |  | 6.925 | 
CC1CN(CCC(=O)Oc2c(C(C)C)cccc2C(C)C)CC(C)O1.Cl (configuration not stated) | 3.1 | 1.429 | 
CCN(CC)CC(=O)Oc1c(C(C)C)cccc1C(C)C.Cl | 11.4 | 4.07 | survival [6]: 100%; Activity [5]: Active; ED50 [7]: 77 µmol/kg
Cc1cc(C(=O)c2c(C(C)C)cccc2C(C)C)ccc1N1C(=O)C=CC1=O |  |  | inhibition [2]: Active
CC1CC(C)CN(CCCOC(=O)Oc2c(C(C)C)cccc2C(C)C)C1.Cl (configuration not stated) |  | 3.428 | 
CC(C)c1cccc(C(C)C)c1OC(=O)CN1CCN(CCO)CC1.Cl |  | > 120 | 

SMILES | Retention time [1] [min] | t1/2 [3] [min] | also measured
CC(C)c1cccc(C(C)C)c1OC(=O)CN1CCOCC1 | 0.5 |  | 
COc1cc(-c2cc(C(=O)O)n[nH]2)ccc1Oc1c(C(C)C)cccc1C(C)C |  |  | inhibition [2]: Active
CC1CC(C)CN(CCOC(=O)Oc2c(C(C)C)cccc2C(C)C)C1.Cl (configuration not stated) | > 110 | 9.305 | 
CC(C)c1cccc(C(C)C)c1OC(=O)OCCN1CCCCC1 | 1 |  | 
CC(C)c1cccc(C(C)C)c1OC(=O)CCN1CCN(C(C)C)CC1.Cl |  | > 120 | 
CC(C)c1cccc(C(C)C)c1OC(=O)OCCN1CCN(C(C)C)CC1.Cl |  | > 120 | 
CC(C)c1cccc(C(C)C)c1OC(=O)OCCN1CCN(CCO)CC1.Cl |  | 63.54 | 
CCCN(CCO)CCOC(=O)Oc1c(C(C)C)cccc1C(C)C.Cl |  | < 8.609 | 
CC1CC(C)CN(CC(=O)Oc2c(C(C)C)cccc2C(C)C)C1 (configuration not stated) | > 110 |  | 
CC(C)c1cccc(C(C)C)c1C(=O)c1ccc2c(CN(C)C)c[nH]c2c1 |  |  | inhibition [2]: Active
CC(C)c1cccc(C(C)C)c1OC(=O)CN1CCCCC1 |  |  | survival [6]: 100%; Activity [5]: Active
CC(C)c1cccc(C(C)C)c1O |  |  | Activity [5]: inactive; Activity [8]: Active
CCN(CC)CCC(=O)Oc1c(C(C)C)cccc1C(C)C.Cl | 18.5 | 3.288 | survival [6]: 100%; Activity [5]: Active; ED50 [7]: 64 µmol/kg
CCN1CCN(CC(=O)Oc2c(C(C)C)cccc2C(C)C)CC1.Cl |  | > 120 | 
CC(C)c1cccc(C(C)C)c1OC(=O)CCN1CCOCC1 | 0.9 |  | 
CCN(CC)CCCOC(=O)Oc1c(C(C)C)cccc1C(C)C.Cl | 37.1 | < 8.609 | 
CC(C)c1cccc(C(C)C)c1OC1CCN(c2ccc(C(=O)O)cc2)CC1 |  |  | inhibition [2]: Active
CC(C)c1cccc(C(C)C)c1Oc1ccc(C[C@@H](N)C(N)=O)cc1 |  |  | inhibition [2]: Active
CC1CN(CC(=O)Oc2c(C(C)C)cccc2C(C)C)CC(C)O1.Cl (configuration not stated) | 0.5 | 7.227 | 
CCN1CCN(CCC(=O)Oc2c(C(C)C)cccc2C(C)C)CC1.Cl |  | > 120 | 
